# Data reported in article PMC8153121, “N-Alkylation of Anthracycline Antibiotics by Natural Sesquiterpene Lactones as a Way to Obtain Antitumor Agents with Reduced Side Effects” (Biomedicines, 2021).
# Like-named read-outs stand apart in the source and are kept apart here.
# Tests used:
# [1] = target: T1, cytochrome-c-oxidase complex of the mitochondrial respiratory chain (IV) (Rattus norvegicus, UniProt P00406+P05503+P05505); assay: Respiratory chain complex IV, OCR of isolated rat heart mitochondria (Seahorse); format: biochemical; settings: isolated rat heart mitochondria 10 μg/well, compounds at 30 μM
# T1 construct: Rat heart mitochondria were isolated by differential centrifugation; from tissue; host or cells: rat heart mitochondria
# Experimental: (§1) Rat heart mitochondria were isolated by differential centrifugation using ice-cold buffer containing KCl (120 mM) and HEPES (20 mM), pH = 7.4, and a trypsin inhibitor. The mitochondrial yield ranged from 5 to 10 mg/mL of protein in the heart sediment. Mitochondria were stored in plastic containers at 4 °C.
# (§2) The effect of the compounds on the functioning of the electron transport chain complexes was carried out using an Agilent Seahorse XF96e Analyzer (Seahorse Bioscience, Billerica, MA, USA) according to their ability to change the rate of oxygen uptake by isolated rat heart mitochondria (10 μg/well). The following modulators were used: activators of complex I of the electron transport chain, NADH dehydrogenase,—glutamate/malate; rotenone (2 μM) (Sigma Aldrich, Saint Louis, USA)—a tissue respiration blocker that stops the transfer of electrons from the reduced form of NADH to cytochrome b, was used as complex I inhibitor; potassium succinate ([…]) (Dia-M, Moscow, Russia), which is a substrate of complex II of the electron transport chain, made it possible to assess mitochondrial respiration mediated by succinate dehydrogenase; complex III (ubiquinol-cytochrome c-oxidoreductase) inhibitor—a blocker of cellular respiration antimycin A (Sigma Aldrich, Saint Louis, USA), as well as ascorbate/TMPD (0.5 μM) (Sigma Aldrich, Saint Louis, USA), allowed us to evaluate the cytochrome-c-oxidase mediated respiration of organelles.
# [2] = test system: RD (embryonic rhabdomyosarcoma); assay: MTT cell viability test, RD; format: cell-based, Human; settings: 72 h, read-out: IC50, RD
# Experimental: (§3) Human cell cultures of tumor origin (A549 (lung carcinoma), HCT116 (colon adenocarcinoma), MCF7 (breast cancer), RD (embryonic rhabdomyosarcoma)), and the line of non-transformed cells HEK293 (embryonic kidney) provided by the Laboratory of Tumor Cell Genetics at the N.N. Blokhin Russian Cancer Research Institute, as well as by the Institute of Cytology of the Russian Academy of Sciences, were grown in DMEM (Gibco, Scotland, UK) and MEM (Gibco, Scotland, UK) containing fetal calf serum (10% by volume) (ThermoFisher Scientific, Paisley, UK), L-glutamine (2 mM) (Gibco, Scotland, UK), and penicillin-streptomycin (1% by volume) (PanEco, Moscow, Russia).
# (§4) Cellular viability was determined by the MTT test. […] After 24 h of incubation, various concentrations of the test compounds dissolved in DMSO (≤1%) were added to the cell cultures, the solvent was added to the control wells in an equal volume, and then the cells were cultured under the same conditions for 72 h. After the incubation time, MTT (3-(4,5-dimethylthiazol-2-yl)-2,5-diphenyltetrazolium bromide, 5 mg/mL) was added to each well, and the plates were further incubated for 2 h (until a characteristic color appeared). Then, the formazan granules were dissolved in DMSO.
# (§5) Using a plate analyzer (Cytation3, BioTech Instruments Inc., USA), the optical density was determined at λ = 530 nm.
# [3] = test system: HEK293 (embryonic kidney); assay: MTT cell viability test, non-transformed HEK293; format: cell-based, Human; settings: read-out: IC50, HEK293
# Experimental: as §3, §4, §5
# [4] = test system: rat heart mitochondria; assay: Mitochondrial swelling; format: biochemical; settings: rat heart mitochondria 0.5 mg/mL, compounds at 100 μM, Ca2+ 25 μM
# Experimental: as §1
# Mitochondrial swelling was recorded by the light transmission of the rat heart mitochondrial suspension at λ = 540 nm using a Victor 3 plate analyzer (Perkin Elmer, Germany). The swelling rate was estimated as △A540/min and was calculated as the tangent of the angle of the steepest dependence curve part △A540 versus time.
# [5] = test system: HCT116 (colon adenocarcinoma); assay: MTT cell viability test, HCT116; format: cell-based, Human; settings: read-out: IC50, HCT116
# Experimental: as §3, §4, §5
# [6] = target: T2, complex II of the electron transport chain (Rattus norvegicus, UniProt P21913+Q641Z9+Q6PCT8+Q920L2); assay: Respiratory chain complex II, OCR of isolated rat heart mitochondria (Seahorse); format: biochemical; settings: isolated rat heart mitochondria 10 μg/well, compounds at 30 μM
# T2 construct: Rat heart mitochondria were isolated by differential centrifugation; from tissue; host or cells: rat heart mitochondria
# Experimental: as §1, §2
# [7] = test system: MCF7 (breast cancer); assay: MTT cell viability test, MCF7; format: cell-based, Human; settings: read-out: IC50, MCF7
# Experimental: as §3, §4, §5
# [8] = test system: A549 (lung carcinoma); assay: MTT cell viability test, A549; format: cell-based, Human; settings: read-out: IC50, A549
# Experimental: as §3, §4, §5
# [9] = MTT, 72 h, non-transformed cells
# T1 sequence (P00406 whole entry, other chains not shown): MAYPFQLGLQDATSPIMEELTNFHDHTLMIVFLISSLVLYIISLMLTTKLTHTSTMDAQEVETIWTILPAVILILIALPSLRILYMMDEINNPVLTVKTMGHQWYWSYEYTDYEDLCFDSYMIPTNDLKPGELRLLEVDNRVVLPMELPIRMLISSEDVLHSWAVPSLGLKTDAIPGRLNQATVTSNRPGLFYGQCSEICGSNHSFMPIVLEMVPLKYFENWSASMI
# T1 sequence (P05505 whole entry, other chains not shown): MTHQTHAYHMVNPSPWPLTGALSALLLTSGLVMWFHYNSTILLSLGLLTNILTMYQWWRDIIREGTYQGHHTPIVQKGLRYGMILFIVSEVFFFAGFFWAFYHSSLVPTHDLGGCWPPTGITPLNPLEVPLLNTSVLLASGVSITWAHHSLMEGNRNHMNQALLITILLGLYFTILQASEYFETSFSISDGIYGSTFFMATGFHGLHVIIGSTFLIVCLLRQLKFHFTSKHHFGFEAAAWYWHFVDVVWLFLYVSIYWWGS
# T2 sequence (Q920L2 35-656): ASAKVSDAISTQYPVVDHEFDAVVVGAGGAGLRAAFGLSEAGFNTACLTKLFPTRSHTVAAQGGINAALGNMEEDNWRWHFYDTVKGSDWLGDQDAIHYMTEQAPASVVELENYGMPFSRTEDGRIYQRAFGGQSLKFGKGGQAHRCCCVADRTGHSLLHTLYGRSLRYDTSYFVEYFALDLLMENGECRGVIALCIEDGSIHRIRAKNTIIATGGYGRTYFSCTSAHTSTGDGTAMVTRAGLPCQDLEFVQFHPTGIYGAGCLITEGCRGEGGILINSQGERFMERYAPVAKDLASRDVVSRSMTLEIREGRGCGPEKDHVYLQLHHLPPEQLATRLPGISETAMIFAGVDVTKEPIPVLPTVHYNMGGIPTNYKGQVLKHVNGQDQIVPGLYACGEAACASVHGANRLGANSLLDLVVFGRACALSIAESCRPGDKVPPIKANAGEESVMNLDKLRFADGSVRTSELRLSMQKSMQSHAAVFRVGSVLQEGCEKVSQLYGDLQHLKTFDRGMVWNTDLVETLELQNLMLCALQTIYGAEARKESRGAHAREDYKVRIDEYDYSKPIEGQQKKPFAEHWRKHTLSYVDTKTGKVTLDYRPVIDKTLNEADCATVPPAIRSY
# T2 sequence (P21913 31-282): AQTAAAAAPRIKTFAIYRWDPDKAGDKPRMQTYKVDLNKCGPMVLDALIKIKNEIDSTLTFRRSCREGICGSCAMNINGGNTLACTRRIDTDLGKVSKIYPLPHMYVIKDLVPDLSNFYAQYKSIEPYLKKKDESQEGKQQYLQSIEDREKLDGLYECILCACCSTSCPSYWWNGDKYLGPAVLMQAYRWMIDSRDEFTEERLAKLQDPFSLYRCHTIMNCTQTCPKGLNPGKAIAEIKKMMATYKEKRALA
# T2 sequence (Q641Z9 30-169 limits assumed): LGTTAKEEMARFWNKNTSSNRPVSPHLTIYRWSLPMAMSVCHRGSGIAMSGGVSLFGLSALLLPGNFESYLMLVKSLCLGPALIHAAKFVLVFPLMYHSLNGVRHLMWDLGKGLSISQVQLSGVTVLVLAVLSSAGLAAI
# T2 sequence (Q6PCT8 57-159): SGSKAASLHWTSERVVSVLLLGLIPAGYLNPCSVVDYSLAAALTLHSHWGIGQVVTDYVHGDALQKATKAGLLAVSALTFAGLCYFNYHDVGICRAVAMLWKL
SMILES,"Work of Respiratory Chain Complexes, % Decrease in OCR of Control, IV [1]",IC50 ([2]; Homo sapiens) [nM],melting point [°C],"IC50 ([3]; Homo sapiens, HEK293, 72 h) [µM]","Mitochondrial Swelling, % of Ca2+-Induced Swelling [4]","IC50 ([5]; Homo sapiens, HCT-116, 72 h) [nM]","Work of Respiratory Chain Complexes, % Decrease in OCR of Control, II [6]","IC50 ([7]; Homo sapiens, MCF7, 72 h) [nM]","IC50 ([8]; Homo sapiens, A549, 72 h) [nM]",IC50 ([2]; MTT) [nM],"IC50 [3, 9] [µM]","IC50 ([5]; MTT, 72 h) [nM]","IC50 ([7]; MTT, 72 h) [nM]","IC50 ([8]; MTT, 72 h) [nM]"
"COc1cccc2c1C(=O)c1c(O)c3c(c(O)c1C2=O)C[C@@](O)(C(=O)CO)C[C@@H]3O[C@H]1C[C@H](NC[C@H]2C(=O)O[C@@H]3C[C@@]4(C)CCC=C(C)C4=C[C@@H]32)[C@H](O)[C@H](C)O1 [Compound 8a, (8S,10S)-10-(((2R,4S,5S,6S)-4-((((3S,3aR,8aR,9aR)-5,8a-Dimethyl-2-oxo-2,3,3a,7,8,8a,9,9a-octahydronaphtho[2,3-b]furan-3-yl)methyl)amino)-5-hydroxy-6-methyltetrahydro-2H-pyran-2-yl)oxy)-6,8,11-trihydroxy-8-(2-hydroxyacetyl)-1-methoxy-7,8,9,10-tetrahydrotetracene-5,12-dione]",25.95 ± 4.43%,1030 ± 20,166 to 170,16.4 ± 1.07,47.84 ± 4.99%,430 ± 20,27.58 ± 4.30%,2340 ± 10,1870 ± 70,,,,,
C=C1CCCC2(C)CC3OC(=O)C(CNC4CC(OC5CC(O)(C(C)=O)Cc6c(O)c7c(c(O)c65)C(=O)c5c(OC)cccc5C7=O)OC(C)C4O)C3CC12 (stereo not drawn) [Compound 1b],— (“—” indicates activity absence for compounds (≤10%) in a particular test),,,,— (“—” indicates activity absence for compounds (≤10%) in a particular test),,— (“—” indicates activity absence for compounds (≤10%) in a particular test),,,960 ± 20,3.43 ± 0.04,280,3950 ± 30,930 ± 60
COc1cccc2c1C(=O)c1c(O)c3c(c(O)c1C2=O)C[C@@](O)(C(C)=O)C[C@@H]3O[C@H]1C[C@H](NC[C@H]2C(=O)O[C@@H]3C[C@@]4(C)CCC=C(C)C4=C[C@@H]32)[C@H](O)[C@H](C)O1,,,152 to 158,,,,,,,,,,,
COc1cccc2c1C(=O)c1c(O)c3c(c(O)c1C2=O)CC(O)(C(C)=O)CC3OC1CC(NCC2C(=O)OC3CC4(C)CCCC5(C)OC45CC32)C(O)C(C)O1 (mixture of isomers) [Compound 6b],41.69 ± 2.13%,,,,— (“—” indicates activity absence for compounds (≤10%) in a particular test),,26.74 ± 4.56%,,,410 ± 20,3.68 ± 0.16,260 ± 10,1470 ± 40,560 ± 10
COc1cccc2c1C(=O)c1c(O)c3c(c(O)c1C2=O)CC(O)(C(=O)CO)CC3OC1CC(NCC2C(=O)OC3CC4(C)CCCC5(C)OC45CC32)C(O)C(C)O1 (mixture of isomers) [Compound 6a],40.50 ± 4.05%,,,,54.22 ± 5.49%,,,,,1180 ± 10,0.98 ± 0.23,250 ± 40,2940 ± 20,880 ± 110
"COc1cccc2c1C(=O)c1c(O)c3c(c(O)c1C2=O)C[C@@](O)(C(C)=O)C[C@@H]3O[C@H]1C[C@H](NC[C@H]2C(=O)O[C@@H]3CC4=CCC[C@H](C)[C@@]4(C)[C@@H](O)[C@@H]32)[C@H](O)[C@H](C)O1 [Compound 7b, (8S,10S)-8-Acetyl-6,8,11-trihydroxy-10-(((2R,4S,5S,6S)-5-hydroxy-4-((((3S,3aS,4S,4aR,5S,9aR)-4-hydroxy-4a,5-dimethyl-2-oxo-2,3,3a,4,4a,5,6,7,9,9a-decahydronaphtho[2,3-b]furan-3-yl)methyl)amino)-6-methyltetrahydro-2H-pyran-2-yl)oxy)-1-methoxy-7,8,9,10-tetrahydrotetracene-5,12-dione]",46.08 ± 3.42%,1950 ± 10,155 to 162,6.42 ± 0.21,— (“—” indicates activity absence for compounds (≤10%) in a particular test),200 ± 10,21.04 ± 4.22%,1900 ± 70,2010 ± 90,,,,,
COc1cccc2c1C(=O)c1c(O)c3c(c(O)c1C2=O)CC(O)(C(C)=O)CC3OC1CC(NCC2C(=O)OC3CC4(C)CCCC(C)C45OC5C32)C(O)C(C)O1 (stereo not drawn) [Compound 5b],21.56 ± 3.66%,,,,— (“—” indicates activity absence for compounds (≤10%) in a particular test),,— (“—” indicates activity absence for compounds (≤10%) in a particular test),,,800,18.19 ± 0.18,1300 ± 20,1840 ± 60,1190 ± 20
COc1cccc2c1C(=O)c1c(O)c3c(c(O)c1C2=O)C[C@@](O)(C(=O)CO)C[C@@H]3O[C@H]1C[C@H](NC[C@H]2C(=O)O[C@@H]3C[C@@]4(C)CCC[C@H](C)C4=C[C@@H]32)[C@H](O)[C@H](C)O1 [Compound 2a],20.45 ± 5.85%,,,,31.51 ± 8.35%,,39.11 ± 4.05%,,,2670 ± 110,29.83 ± 0.18,4550 ± 30,26800 ± 650,3290 ± 110
C=C1CCCC2(C)CC3OC(=O)C(CNC4CC(OC5CC(O)(C(=O)CO)Cc6c(O)c7c(c(O)c65)C(=O)c5c(OC)cccc5C7=O)OC(C)C4O)C3CC12 (stereo not drawn) [Compound 1a],24.52 ± 7.61%,,,,— (“—” indicates activity absence for compounds (≤10%) in a particular test),,27.61 ± 5.71%,,,2410 ± 30,19.8 ± 0.42,2810 ± 50,11100 ± 170,2210 ± 60
